The results in this text go back to ChEMBL document CHEMBL5465560, “Selectivity Literature for EUbOPEN Chemogenomic Library” (2024).

Experiment [1] deals with T1, Serine/threonine-protein kinase ULK3 (Homo sapiens) (UniProt Q6PHR2).
T1 sequence (whole entry): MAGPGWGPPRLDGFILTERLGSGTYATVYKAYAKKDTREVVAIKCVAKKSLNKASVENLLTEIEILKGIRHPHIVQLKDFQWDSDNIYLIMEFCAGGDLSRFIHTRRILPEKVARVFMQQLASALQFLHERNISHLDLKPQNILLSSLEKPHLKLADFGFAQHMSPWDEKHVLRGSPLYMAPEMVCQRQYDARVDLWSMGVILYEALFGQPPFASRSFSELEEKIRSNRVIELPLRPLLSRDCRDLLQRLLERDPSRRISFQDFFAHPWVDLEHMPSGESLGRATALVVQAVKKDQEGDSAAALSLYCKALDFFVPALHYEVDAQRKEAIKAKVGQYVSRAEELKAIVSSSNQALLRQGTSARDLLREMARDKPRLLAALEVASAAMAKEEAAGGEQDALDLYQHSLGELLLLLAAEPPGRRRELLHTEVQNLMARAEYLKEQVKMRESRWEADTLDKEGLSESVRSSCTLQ
The experiment is described as follows: Selectivity interaction (KinomeScan (DiscoverX)) EUB0000595a ULK3. The conditions noted are these: at 10 µM.

For experiment [2], the target named is T2, Serine/threonine-protein kinase Nek2 (Homo sapiens) (UniProt P51955).
T2 sequence (whole entry): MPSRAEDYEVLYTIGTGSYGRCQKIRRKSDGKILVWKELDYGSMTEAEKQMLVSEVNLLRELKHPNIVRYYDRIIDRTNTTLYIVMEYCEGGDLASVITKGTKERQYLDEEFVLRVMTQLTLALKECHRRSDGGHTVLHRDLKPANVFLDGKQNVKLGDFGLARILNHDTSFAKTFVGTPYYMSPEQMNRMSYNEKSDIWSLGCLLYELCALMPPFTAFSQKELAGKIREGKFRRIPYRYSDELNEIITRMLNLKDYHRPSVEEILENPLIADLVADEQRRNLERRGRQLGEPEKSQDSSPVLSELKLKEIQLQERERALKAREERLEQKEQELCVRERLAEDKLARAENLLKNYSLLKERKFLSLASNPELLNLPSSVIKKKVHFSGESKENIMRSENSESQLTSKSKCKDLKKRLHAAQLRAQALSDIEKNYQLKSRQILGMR
The experiment is described as follows: Selectivity interaction (Kinase screening (Nanosyn)) EUB0000604a NEK2.

For experiment [3], the target named is Cyclin-dependent kinase 2 (Homo sapiens, UniProt P24941). As to the kind of experiment: Selectivity interaction (ActivX KiNativ screen (kinase selectivity in THP-1 cell lysates)) EUB0000639a CDK2. To be noted: lysate, at 0.01 µM. Format: subcellular.
For experiment [4], the target named is Cyclin-dependent kinase 7 (Homo sapiens, UniProt P50613). The experiment is described as follows: Selectivity interaction (ActivX KiNativ screen (kinase selectivity in THP-1 cell lysates)) EUB0000639a CDK7. Format: subcellular. To be noted: lysate, at 5 µM.
Cyclin-dependent kinase 7, sequence (P50613 whole entry): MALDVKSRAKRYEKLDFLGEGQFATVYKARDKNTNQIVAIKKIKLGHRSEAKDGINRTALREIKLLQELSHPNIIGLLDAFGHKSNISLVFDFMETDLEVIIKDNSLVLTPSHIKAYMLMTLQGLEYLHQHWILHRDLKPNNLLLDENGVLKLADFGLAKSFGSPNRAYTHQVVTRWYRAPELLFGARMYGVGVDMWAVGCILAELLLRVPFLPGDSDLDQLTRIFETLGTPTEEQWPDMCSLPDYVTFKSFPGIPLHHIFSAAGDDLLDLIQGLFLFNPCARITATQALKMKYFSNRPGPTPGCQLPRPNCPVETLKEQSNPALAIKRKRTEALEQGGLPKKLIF
Experiment [5] deals with T3, Inhibitor of nuclear factor kappa-B kinase subunit alpha (Homo sapiens) (UniProt O15111).
T3 sequence (whole entry): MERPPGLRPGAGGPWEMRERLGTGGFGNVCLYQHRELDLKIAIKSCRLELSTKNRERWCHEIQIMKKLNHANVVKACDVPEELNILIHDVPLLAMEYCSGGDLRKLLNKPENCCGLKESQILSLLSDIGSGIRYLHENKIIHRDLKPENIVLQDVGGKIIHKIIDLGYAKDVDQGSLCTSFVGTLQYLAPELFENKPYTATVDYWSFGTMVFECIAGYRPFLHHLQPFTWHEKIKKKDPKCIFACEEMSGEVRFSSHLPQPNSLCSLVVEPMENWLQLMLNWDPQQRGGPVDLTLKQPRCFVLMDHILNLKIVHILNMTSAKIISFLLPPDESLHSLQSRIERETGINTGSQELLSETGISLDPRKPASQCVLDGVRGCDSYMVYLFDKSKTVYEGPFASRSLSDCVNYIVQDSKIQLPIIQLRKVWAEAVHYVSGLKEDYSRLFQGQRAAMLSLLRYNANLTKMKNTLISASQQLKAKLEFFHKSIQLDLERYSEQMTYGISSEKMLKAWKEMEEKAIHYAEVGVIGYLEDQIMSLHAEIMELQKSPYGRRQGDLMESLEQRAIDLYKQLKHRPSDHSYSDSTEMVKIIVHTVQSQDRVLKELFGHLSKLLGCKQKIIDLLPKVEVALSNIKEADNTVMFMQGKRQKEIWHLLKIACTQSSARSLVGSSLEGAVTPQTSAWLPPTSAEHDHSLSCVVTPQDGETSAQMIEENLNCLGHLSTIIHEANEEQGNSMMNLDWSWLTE
The experiment is described as follows: Selectivity interaction (Kinase panel (Invitrogen)) EUB0000639a CHUK. The conditions noted are these: at 200 nM.

The target in experiment [6] is Serine/threonine-protein kinase SIK1 (Homo sapiens) (UniProt P57059). The experiment is described as follows: Selectivity interaction (KinomeScan (DiscoverX)) EUB0000655a SIK1. To be noted: at 10 µM.
Serine/threonine-protein kinase SIK1 (Homo sapiens), sequence (P57059 whole entry): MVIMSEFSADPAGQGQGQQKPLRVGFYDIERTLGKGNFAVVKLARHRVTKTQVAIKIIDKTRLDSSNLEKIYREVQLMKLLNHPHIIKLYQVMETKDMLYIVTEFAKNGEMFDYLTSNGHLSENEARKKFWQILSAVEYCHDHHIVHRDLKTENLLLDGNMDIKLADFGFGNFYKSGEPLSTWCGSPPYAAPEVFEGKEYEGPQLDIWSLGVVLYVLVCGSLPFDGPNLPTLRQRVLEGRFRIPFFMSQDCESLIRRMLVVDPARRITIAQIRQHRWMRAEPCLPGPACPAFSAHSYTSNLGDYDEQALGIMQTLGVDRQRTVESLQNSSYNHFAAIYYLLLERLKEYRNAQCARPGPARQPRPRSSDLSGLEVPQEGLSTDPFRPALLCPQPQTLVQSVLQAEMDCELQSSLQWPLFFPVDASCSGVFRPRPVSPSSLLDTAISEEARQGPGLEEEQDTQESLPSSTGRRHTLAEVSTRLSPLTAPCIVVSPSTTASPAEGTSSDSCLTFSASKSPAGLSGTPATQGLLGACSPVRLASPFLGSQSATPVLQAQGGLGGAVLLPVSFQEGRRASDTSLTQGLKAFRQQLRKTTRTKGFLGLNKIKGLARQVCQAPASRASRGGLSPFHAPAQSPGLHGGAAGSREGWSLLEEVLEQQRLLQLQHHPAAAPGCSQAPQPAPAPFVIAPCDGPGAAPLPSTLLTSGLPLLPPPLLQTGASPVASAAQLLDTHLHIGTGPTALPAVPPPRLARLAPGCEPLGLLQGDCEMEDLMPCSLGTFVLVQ
The target in experiment [7] is T4, Ephrin type-A receptor 3 (Homo sapiens) (UniProt P29320).
T4 sequence (whole entry): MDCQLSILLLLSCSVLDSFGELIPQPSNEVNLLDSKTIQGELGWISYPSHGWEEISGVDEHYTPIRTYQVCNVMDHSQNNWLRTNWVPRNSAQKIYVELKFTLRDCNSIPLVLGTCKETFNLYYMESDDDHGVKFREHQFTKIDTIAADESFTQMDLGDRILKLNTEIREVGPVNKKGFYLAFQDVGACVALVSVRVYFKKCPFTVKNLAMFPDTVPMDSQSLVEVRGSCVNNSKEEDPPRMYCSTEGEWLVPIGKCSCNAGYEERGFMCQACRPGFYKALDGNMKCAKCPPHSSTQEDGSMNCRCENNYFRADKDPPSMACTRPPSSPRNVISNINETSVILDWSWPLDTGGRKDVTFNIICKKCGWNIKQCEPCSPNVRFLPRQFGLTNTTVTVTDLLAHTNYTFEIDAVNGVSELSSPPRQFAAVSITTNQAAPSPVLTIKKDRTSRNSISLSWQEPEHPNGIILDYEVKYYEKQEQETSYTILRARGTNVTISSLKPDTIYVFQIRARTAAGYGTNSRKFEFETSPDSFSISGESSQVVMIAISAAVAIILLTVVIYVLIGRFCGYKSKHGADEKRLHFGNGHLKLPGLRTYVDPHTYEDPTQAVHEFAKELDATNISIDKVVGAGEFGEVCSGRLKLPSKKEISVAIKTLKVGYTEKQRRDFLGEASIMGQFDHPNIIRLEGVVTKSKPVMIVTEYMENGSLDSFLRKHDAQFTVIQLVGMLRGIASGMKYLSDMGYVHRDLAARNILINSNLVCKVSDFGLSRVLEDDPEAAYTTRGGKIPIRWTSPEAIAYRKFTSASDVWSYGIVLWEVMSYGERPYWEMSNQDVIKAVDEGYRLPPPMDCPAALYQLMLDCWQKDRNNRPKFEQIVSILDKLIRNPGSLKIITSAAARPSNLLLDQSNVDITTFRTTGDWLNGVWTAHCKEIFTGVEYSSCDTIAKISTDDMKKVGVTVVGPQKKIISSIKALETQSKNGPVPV
As to the kind of experiment: Selectivity interaction (KinomeScan (DiscoverX)) EUB0000229b EPHA3. The conditions noted are these: at 10 µM.

In experiment [1], `COCC(=O)NC/C=C/c1ccc2ncnc(Nc3ccc(Oc4ccc(C)nc4)c(C)c3)c2c1` [CP-724714] displayed a % of control of 68%.
Regarding `Cc1cnc(Nc2ccc(F)cc2Cl)nc1-c1c[nH]c(C(=O)N[C@H](CO)c2cccc(Cl)c2)c1`, the % of inhibition in experiment [2] turned out to be 3%.
Turning to `CC[C@@H]1[C@H](F)C(=O)N[C@@H]1COc1nccc2cc(C(N)=O)c(OC)cc12` [ZIMLOVISERTIB], the % of inhibition was 0.3% in experiment [3], 44.8% in experiment [4] and -5.38% in experiment [5].
`CN(C)CCOc1ccc(-c2nc(-c3ccncc3)c(-c3ccc4c(c3)CC/C4=N\O)[nH]2)cc1` gave a % of control in experiment [6] of 100%.
Compound `COc1cc(N(C)c2ccnc3ccc(C(F)(F)F)cc23)cc(OC)c1OC` returned a % binding in experiment [7] of 93%.
